The numbers were not newly measured in patent US7704745B2 (priority 2001, dated 2010), which cites them from elsewhere.

The series relates to human hepatocyte and neuroblastoma cells. To be noted: cited from earlier work.

Consider `CCOP(=O)(OCC)Oc1ccc([N+](=O)[O-])cc1` [paraoxon], for which the “effect on hepatocyte and neuroblastoma cell metabolism” value is reported as “opposite effects”. With `CCOP(=S)(OCC)Oc1ccc([N+](=O)[O-])cc1` [parathion], the “effect on hepatocyte and neuroblastoma cell metabolism” value is reported as “opposite effects”.
